# Measurements: PubChem BioAssay AID296 (DTP/NCI, 2004)
# Values joined by “and” are separate entries in the source; they are usually repeats but may differ in a detail not shown here. Identical values can stand only once. Results filed as inconclusive are left out. Where a SMILES comes first, the peptide text is derived from it. The star is where a group is joined. Trt = c1ccc(C(c2ccccc2)(c2ccccc2)*)cc1; Cbz = O=C(OCc1ccccc1)*; Bn = c1ccc(C*)cc1; βAla = NCCC(=O)O
# Tested on: MX-1 breast xenograft, nude mice, tumor weight T/C
# Experiment: NCI In Vivo Anticancer Drug Screen. Data for tumor model Human Mammary Carcinoma MX-1 Xenograft (intrarenal inoculation) in NU/NU Swiss (nude) mice
# Details: endpoint: mean tumor weight change, higher = larger tumour
# Protocol: The antitumor activity of compounds was measured in mice bearing transplantable tumors. Survival or tumor size were measured and the results are expressed as the measurement made in the treated group (T) divided by the measurement made in the vehicle treated control group (C). The tumor model used in this assay is Human Mammary Carcinoma MX-1 Xenograft (intrarenal inoculation) in NU/NU Swiss (nude) mice
# [1] = dose: 75.0 mg/kg/injection, schedule: Q04DX003 (sc), vehicle: Klucel (hydroxypropylcellulose) (HPC)
# [2] = dose: 150.0 mg/kg/injection, schedule: Q04DX003 (sc), vehicle: Klucel (hydroxypropylcellulose) (HPC)
# [3] = dose: 50.0 mg/kg/injection, schedule: Q04DX003 (sc), vehicle: Klucel (hydroxypropylcellulose) (HPC)
# [4] = dose: 200.0 mg/kg/injection, schedule: Q04DX003 (sc), vehicle: Klucel (hydroxypropylcellulose) (HPC)
# [5] = dose: 300.0 mg/kg/injection, schedule: Q04DX003 (sc), vehicle: saline with Tween-80
# [6] = dose: 300.0 mg/kg/injection, schedule: Q04DX003 (sc), vehicle: Klucel (hydroxypropylcellulose) (HPC)
# [7] = dose: 600.0 mg/kg/injection, schedule: Q04DX003 (sc), vehicle: Klucel (hydroxypropylcellulose) (HPC)
smiles,measurement,setting,value
CN1c2c(nc(N)[nH]c2=O)NCC1CCNc1ccc(C(=O)NC(CCC(=O)O)C(=O)O)cc1 (centres undefined),T/C,"dose: 100.0 mg/kg/injection, schedule: Q01DX010 (sc), vehicle: saline",83 % of control
same,T/C,"dose: 100.0 mg/kg/injection, schedule: Q01DX010 (sc), vehicle: suspension in saline",60 % of control
same,T/C,"dose: 200.0 mg/kg/injection, schedule: Q01DX010 (sc), vehicle: saline",76 % of control
same,T/C,"dose: 400.0 mg/kg/injection, schedule: Q01DX010 (sc), vehicle: saline",81 % of control
same,T/C,"dose: 400.0 mg/kg/injection, schedule: Q01DX010 (sc), vehicle: suspension in saline",25 % of control
same,T/C,"dose: 800.0 mg/kg/injection, schedule: Q01DX010 (sc), vehicle: saline",62 % of control
COC1CC(C)C(OC)C2=CC(=O)C=C(NC(=O)/C(C)=C/C=C\C(C)C(OC(N)=O)/C(C)=C\C(C)C1OC)C2=O (centres undefined),T/C,"dose: 12.5 mg/kg/injection, schedule: Q04DX003 (sc), vehicle: saline + alcohol",81 % of control
same,T/C,"dose: 25.0 mg/kg/injection, schedule: Q04DX003 (sc), vehicle: saline + alcohol",97 % of control
O=C1C=CC(=O)N1c1ccc(Cl)cc1,T/C,"dose: 37.5 mg/kg/injection, schedule: Q04DX003 (sc), vehicle: Klucel (hydroxypropylcellulose) (HPC)",79 % of control
same,T/C,[1],91 % of control
same,T/C,[2],85 % of control
C[n+]1c2cc(N)ccc2cc2ccc(N)cc21,T/C,"dose: 1.56 mg/kg/injection, schedule: Q01DX010 (sc), vehicle: saline",79 % of control
same,T/C,"dose: 3.13 mg/kg/injection, schedule: Q01DX010 (sc), vehicle: saline",66 % of control
same,T/C,"dose: 6.25 mg/kg/injection, schedule: Q01DX010 (sc), vehicle: saline",100 % of control
C[C@]12CCC(=O)C(O)=C1CC[C@@H]1[C@@H]2CC[C@]2(C)C(=O)CC[C@@H]12,T/C,"dose: 35.0 mg/kg/injection, schedule: Q01DX010 (sc), vehicle: Klucel (hydroxypropylcellulose) (HPC)",223 % of control
same,T/C,"dose: 70.0 mg/kg/injection, schedule: Q01DX010 (sc), vehicle: Klucel (hydroxypropylcellulose) (HPC)",112 % of control
same,T/C,"dose: 280.0 mg/kg/injection, schedule: Q01DX010 (sc), vehicle: Klucel (hydroxypropylcellulose) (HPC)",88 % of control
COc1ccc2c(c1)CCC(c1ccccc1)=C2c1ccc(OCCN2CCCC2)cc1,T/C,"dose: 25.0 mg/kg/injection, schedule: Q04DX003 (sc), vehicle: Klucel (hydroxypropylcellulose) (HPC)",79 % of control
same,T/C,[3],72 % of control
same,T/C,"dose: 100.0 mg/kg/injection, schedule: Q04DX003 (sc), vehicle: Klucel (hydroxypropylcellulose) (HPC)",70 % of control
same,T/C,[4],67 % of control
Nc1nc(-c2ccccc2)c(Br)c(=O)[nH]1,T/C,[5],96 % of control
same,T/C,"dose: 600.0 mg/kg/injection, schedule: Q04DX003 (sc), vehicle: saline with Tween-80",93 % of control
same,T/C,"dose: 1200.0 mg/kg/injection, schedule: Q04DX003 (sc), vehicle: saline with Tween-80",109 % of control
same,T/C,"dose: 2400.0 mg/kg/injection, schedule: Q04DX003 (sc), vehicle: saline with Tween-80",65 % of control
NS(=O)(=O)OCCCCCCCOS(N)(=O)=O,T/C,"dose: 150.0 mg/kg/injection, schedule: Q04DX003 (ip), vehicle: saline with Tween-80",-97 % of control
C=C(C)C(=O)OC1C/C(CO)=C\C(O)C/C(C)=C/C2OC(=O)C(=C)C21 (centres undefined),T/C,"dose: 20.0 mg/kg/injection, schedule: Q04DX003 (sc), vehicle: saline + alcohol",55 % of control
same,T/C,"dose: 40.0 mg/kg/injection, schedule: Q04DX003 (sc), vehicle: saline + alcohol",106 % of control
same,T/C,"dose: 80.0 mg/kg/injection, schedule: Q04DX003 (sc), vehicle: saline + alcohol",66 % of control
COC(=O)C(CSC(c1ccccc1)(c1ccccc1)c1ccccc1)NC(=O)C(CSCc1ccccc1)NC(=O)CCNC(=O)OCc1ccccc1 (centres undefined) ({Cbz-βAla}-Cys(Bn)-Cys(Trt)-OMe; configuration not given here),T/C,[1],99 % of control
same,T/C,[2],49 % of control
same,T/C,[6],63 % of control
same,T/C,[7],60 % of control
Cc1c2cc[n+](C)cc2c(C)c2c1[nH]c1ccc(O)cc12,T/C,"dose: 1.5 mg/kg/injection, schedule: Q04DX003 (sc), vehicle: water",167 % of control
same,T/C,"dose: 6.0 mg/kg/injection, schedule: Q04DX003 (sc), vehicle: water",91 % of control
COc1cccc2c1C(=O)c1c(O)c3c(c(O)c1C2=O)C[C@@](O)(/C(CO)=N/NC(=O)c1ccc(Cl)c(Cl)c1)C[C@@H]3OC1CC(N)C(O)C(C)O1 (some centres undefined),T/C,"dose: 8.0 mg/kg/injection, schedule: Q01DX010 (sc), vehicle: water",42 % of control
Nc1ncc(C2OC(CO)C(O)C2O)c(=O)[nH]1 (centres undefined),T/C,"dose: 150.0 mg/kg/injection, schedule: Q04DX003 (ip), vehicle: saline",53 % of control
same,T/C,"dose: 300.0 mg/kg/injection, schedule: Q04DX003 (ip), vehicle: saline",35 % of control
same,T/C,"dose: 600.0 mg/kg/injection, schedule: Q04DX003 (ip), vehicle: saline",25 % of control
CC(=O)OCC1OC(n2cc(CBr)nn2)C(OC(C)=O)C(OC(C)=O)C1OC(C)=O (centres undefined),T/C,"dose: 12.5 mg/kg/injection, schedule: Q01DX010 (sc), vehicle: saline with Tween-80",106 % of control
same,T/C,"dose: 25.0 mg/kg/injection, schedule: Q01DX010 (sc), vehicle: saline with Tween-80",117 % of control
same,T/C,"dose: 50.0 mg/kg/injection, schedule: Q01DX010 (sc), vehicle: saline with Tween-80",117 % of control
C[C@]12CC[C@@H]3c4ccc(O)cc4CC[C@H]3[C@@H]1CC[C@@H]2O,T/C,[2],101 % of control
same,T/C,[6],101 % of control
same,T/C,[7],101 % of control
same,T/C,"dose: 1200.0 mg/kg/injection, schedule: Q04DX003 (sc), vehicle: Klucel (hydroxypropylcellulose) (HPC)",104 % of control
C1CNCOC1,T/C,"dose: 150.0 mg/kg/injection, schedule: Q04DX003 (sc), vehicle: saline",100 % of control
same,T/C,"dose: 300.0 mg/kg/injection, schedule: Q04DX003 (sc), vehicle: saline",84 % of control
N#Cc1c(-c2ccc(F)cc2)c(-c2ccc(F)cc2)nn(CCO)c1=O,T/C,"dose: 100.0 mg/kg/injection, schedule: Q04DX003 (ip), vehicle: distilled water + Tween-80",101 % of control
same,T/C,"dose: 200.0 mg/kg/injection, schedule: Q04DX003 (ip), vehicle: distilled water + Tween-80",80 % of control
Ic1ncnc2c1ncn2C1CCCO1 (centres undefined),T/C,[3],84 % of control
same,T/C,[4],97 % of control
same,T/C,"dose: 400.0 mg/kg/injection, schedule: Q04DX003 (sc), vehicle: Klucel (hydroxypropylcellulose) (HPC)",123 % of control
CC(=O)C(=O)O.CC(=O)C(=O)O.[NH-]C1CCCCC1[NH-].[Pt+2] (centres undefined),T/C,"dose: 6.25 mg/kg/injection, schedule: Q04DX003 (ip), vehicle: other",46 % of control
same,T/C,"dose: 12.5 mg/kg/injection, schedule: Q04DX003 (ip), vehicle: other",74 % of control
same,T/C,"dose: 25.0 mg/kg/injection, schedule: Q04DX003 (ip), vehicle: other",45 % of control
same,T/C,"dose: 50.0 mg/kg/injection, schedule: Q04DX003 (ip), vehicle: other",12 % of control
same,T/C,"dose: 100.0 mg/kg/injection, schedule: Q04DX003 (ip), vehicle: other",9 % of control
CCOC(=O)Nc1cc2c(c(N)n1)N=C(c1ccc(Cl)cc1Cl)CN2,T/C,"dose: 37.5 mg/kg/injection, schedule: Q04DX003 (sc), vehicle: saline with Tween-80",79 % of control
same,T/C,"dose: 75.0 mg/kg/injection, schedule: Q04DX003 (sc), vehicle: saline with Tween-80",94 % of control
same,T/C,"dose: 150.0 mg/kg/injection, schedule: Q04DX003 (sc), vehicle: saline with Tween-80",103 % of control and 117 % of control
same,T/C,[5],81 % of control and 84 % of control
C[C@@H](CN1CC(=O)NC(=O)C1)N1CC(=O)NC(=O)C1,T/C,"dose: 100.0 mg/kg/injection, schedule: Q01DX010 (sc), vehicle: saline with Tween-80",63 % of control
same,T/C,"dose: 200.0 mg/kg/injection, schedule: Q01DX010 (sc), vehicle: saline with Tween-80",81 % of control
same,T/C,"dose: 400.0 mg/kg/injection, schedule: Q01DX010 (sc), vehicle: saline with Tween-80",39 % of control
Cc1c(N)nc([C@H](CC(N)=O)NC[C@H](N)C(N)=O)nc1C(=O)N[C@H](C(=O)N[C@H](C)[C@@H](O)CC(=O)N[C@H](C(=O)NC(O[C@@H]1O[C@@H](C)[C@@H](N)[C@@H](O)[C@H]1O)C(O)c1nc(-c2nc(C(=O)NCCCCN)cs2)cs1)[C@@H](C)O)[C@@H](O[C@@H]1O[C@@H](CO)[C@@H](O)[C@H](O)[C@@H]1O[C@H]1O[C@H](CO)[C@@H](O)[C@H](OC(N)=O)[C@@H]1O)c1c[nH]cn1 (some centres undefined),T/C,"dose: 4.0 mg/kg/injection, schedule: Q04DX003 (sc), vehicle: saline",120 % of control
same,T/C,"dose: 8.0 mg/kg/injection, schedule: Q04DX003 (sc), vehicle: saline",64 % of control
same,T/C,"dose: 16.0 mg/kg/injection, schedule: Q04DX003 (sc), vehicle: saline",64 % of control
same,T/C,"dose: 32.0 mg/kg/injection, schedule: Q04DX003 (sc), vehicle: saline",47 % of control
